Experimental findings from patent publication US20090118332A1, “Therapeutic Agents - 551” (AstraZeneca AB, priority 2006, published 2009) are described below.

In this assay the target is T1, human Fatty Acid Synthase (Homo sapiens, UniProt P49327).
T1 construct: made in house
Put plainly: Human FAS enzyme assay (decrease in NADPH fluorescence). The note with it: % inhibition at a concentration of 100 μmolar. The format is biochemical. Summed up: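 In-house human FAS was preincubated with compound and NADPH for 15 min at room temperature in 0.1 M Tris pH 7.5 with EDTA, glutathione and BSA. Malonyl CoA and acetyl CoA (500 μM and 150 μM in the added mix) were then added for 60 min. IC50 came from time-zero-subtracted NADPH fluorescence (340/460 nm).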

T1 sequence (P49327 whole entry): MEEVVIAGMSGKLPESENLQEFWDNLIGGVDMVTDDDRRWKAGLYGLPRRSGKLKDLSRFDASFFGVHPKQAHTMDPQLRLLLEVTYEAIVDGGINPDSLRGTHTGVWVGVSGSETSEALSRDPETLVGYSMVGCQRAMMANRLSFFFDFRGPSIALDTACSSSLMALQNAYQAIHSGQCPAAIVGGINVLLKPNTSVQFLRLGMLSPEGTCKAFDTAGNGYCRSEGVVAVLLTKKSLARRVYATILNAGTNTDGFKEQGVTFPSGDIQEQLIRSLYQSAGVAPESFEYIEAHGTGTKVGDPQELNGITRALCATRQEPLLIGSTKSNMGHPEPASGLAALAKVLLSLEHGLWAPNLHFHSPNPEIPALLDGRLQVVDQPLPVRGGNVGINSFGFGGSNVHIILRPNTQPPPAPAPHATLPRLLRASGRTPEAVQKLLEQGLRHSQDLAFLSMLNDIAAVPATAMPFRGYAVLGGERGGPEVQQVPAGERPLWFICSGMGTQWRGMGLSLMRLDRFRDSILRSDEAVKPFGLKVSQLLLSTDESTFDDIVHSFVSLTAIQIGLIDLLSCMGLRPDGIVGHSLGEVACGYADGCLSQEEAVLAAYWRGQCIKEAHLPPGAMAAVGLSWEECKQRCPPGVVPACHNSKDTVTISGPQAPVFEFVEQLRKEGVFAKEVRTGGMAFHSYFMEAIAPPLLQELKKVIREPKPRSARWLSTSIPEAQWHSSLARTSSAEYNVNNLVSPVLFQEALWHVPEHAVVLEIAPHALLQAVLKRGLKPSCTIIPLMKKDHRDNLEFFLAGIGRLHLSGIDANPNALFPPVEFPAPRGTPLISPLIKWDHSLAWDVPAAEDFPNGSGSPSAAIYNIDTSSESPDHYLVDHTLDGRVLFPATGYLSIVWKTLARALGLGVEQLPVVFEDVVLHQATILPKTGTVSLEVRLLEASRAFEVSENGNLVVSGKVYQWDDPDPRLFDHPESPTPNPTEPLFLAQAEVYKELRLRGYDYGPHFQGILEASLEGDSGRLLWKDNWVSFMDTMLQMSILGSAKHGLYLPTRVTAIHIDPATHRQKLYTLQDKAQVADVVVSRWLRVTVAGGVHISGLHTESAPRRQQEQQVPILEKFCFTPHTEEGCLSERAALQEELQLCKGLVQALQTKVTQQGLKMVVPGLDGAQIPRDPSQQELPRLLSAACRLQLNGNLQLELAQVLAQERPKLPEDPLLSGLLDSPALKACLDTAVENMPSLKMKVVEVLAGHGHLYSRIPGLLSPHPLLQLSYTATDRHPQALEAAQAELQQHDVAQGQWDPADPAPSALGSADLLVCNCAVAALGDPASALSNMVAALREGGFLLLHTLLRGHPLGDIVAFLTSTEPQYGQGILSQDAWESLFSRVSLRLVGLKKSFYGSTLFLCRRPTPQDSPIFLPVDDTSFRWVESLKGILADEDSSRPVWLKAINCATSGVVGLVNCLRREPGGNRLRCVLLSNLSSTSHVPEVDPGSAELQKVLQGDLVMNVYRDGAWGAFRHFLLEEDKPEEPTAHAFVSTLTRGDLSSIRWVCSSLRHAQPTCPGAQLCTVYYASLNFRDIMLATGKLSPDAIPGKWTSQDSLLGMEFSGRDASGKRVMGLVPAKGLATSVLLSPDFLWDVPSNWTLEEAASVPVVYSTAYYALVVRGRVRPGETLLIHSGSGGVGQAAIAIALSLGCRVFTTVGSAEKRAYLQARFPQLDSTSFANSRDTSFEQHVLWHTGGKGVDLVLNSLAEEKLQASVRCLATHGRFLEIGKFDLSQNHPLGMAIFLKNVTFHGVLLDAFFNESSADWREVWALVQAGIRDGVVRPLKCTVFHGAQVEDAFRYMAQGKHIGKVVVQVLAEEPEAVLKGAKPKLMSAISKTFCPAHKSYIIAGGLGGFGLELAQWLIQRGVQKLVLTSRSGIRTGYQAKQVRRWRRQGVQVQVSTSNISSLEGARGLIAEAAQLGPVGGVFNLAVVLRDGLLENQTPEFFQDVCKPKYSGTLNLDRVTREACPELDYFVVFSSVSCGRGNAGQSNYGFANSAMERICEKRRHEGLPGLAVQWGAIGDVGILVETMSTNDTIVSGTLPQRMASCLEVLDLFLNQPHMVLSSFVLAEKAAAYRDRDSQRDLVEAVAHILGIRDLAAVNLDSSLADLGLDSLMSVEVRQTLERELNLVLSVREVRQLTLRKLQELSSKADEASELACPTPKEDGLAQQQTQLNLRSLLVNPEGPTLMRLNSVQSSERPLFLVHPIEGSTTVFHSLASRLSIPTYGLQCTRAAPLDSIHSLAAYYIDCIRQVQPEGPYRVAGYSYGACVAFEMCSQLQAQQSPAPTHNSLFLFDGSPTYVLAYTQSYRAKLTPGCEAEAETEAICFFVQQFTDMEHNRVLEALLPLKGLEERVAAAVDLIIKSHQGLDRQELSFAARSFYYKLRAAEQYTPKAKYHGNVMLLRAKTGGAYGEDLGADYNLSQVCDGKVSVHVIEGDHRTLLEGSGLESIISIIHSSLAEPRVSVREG

In the case of `CC(C)NC(=O)Nc1cc(C(=O)N2CCC(c3ccc(C#N)cc3)CC2)ccc1[S+](C)[O-]` (stereo not drawn) [Example 386, 3-[5-[4-(4-cyanophenyl)piperidine-1-carbonyl]-2-methylsulfinylphenyl]-1-propan-2-ylurea], the inhibition (commonly the change of the read-out against control, counted positive when it falls) at 100 µM was determined as 67.4%. Under `Cc1ccc(C(=O)N2CCC(c3ccc(C#N)cc3)CC2)cc1NC(=O)NC1CN(C(=O)OC(C)(C)C)C1` [Example 97, tert-butyl 3-[[5-[4-(4-cyanophenyl)piperidine-1-carbonyl]-2-methyl-phenyl]carbamoylamino]azetidine-1-carboxylate] stands 95.5%. The figure for `Cc1ccc(C(=O)N2CCC(c3ccc(F)cc3)CC2)cc1NC(=O)NC(C)C` [Example 325, 1-[5-[4-(4-fluorophenyl)piperidine-1-carbonyl]-2-methyl-phenyl]-3-propan-2-yl-urea] is 72.6%; for `Cc1cc(CNC(=O)Nc2cc(C(=O)N3CCC(c4ccc(C#N)cc4)CC3)ccc2C)no1` [Example 246, 1-[5-[4-(4-cyanophenyl)piperidine-1-carbonyl]-2-methyl-phenyl]-3-[(5-methyl-1,2-oxazol-3-yl)methyl]urea] it is 105%; for `CC(=O)N1CCC(NC(=O)Nc2cc(C(=O)N3CCC(c4ccc(C#N)cc4)CC3)ccc2C)CC1` [Example 282, 3-(1-acetyl-4-piperidyl)-1-[5-[4-(4-cyanophenyl)piperidine-1-carbonyl]-2-methyl-phenyl]urea] it is 95%. Turning to `Cc1ccc(C(=O)N2CCC(c3ccc(C#N)cc3)CC2)cc1NC(=O)N[C@@H]1CCCC[C@H]1N` (relative stereo) [Example 305, 3-[(trans)-2-aminocyclohexyl]-1-[5-[4-(4-cyanophenyl)piperidine-1-carbonyl]-2-methyl-phenyl]urea], the inhibition at 100 µM is 78.8%. Under `Cc1ccc(C(=O)N2CCC(c3ccc(C#N)cc3)CC2)cc1NC(=O)NCc1cccc(S(C)(=O)=O)c1` [Example 247, 1-[5-[4-(4-cyanophenyl)piperidine-1-carbonyl]-2-methyl-phenyl]-3-[(3-methylsulfonylphenyl)methyl]urea] stands 101%. The figure for `Cc1ccc(C(=O)N2CCC(c3ccc(C(F)(F)F)cc3)CC2)cc1NC(=O)NCCNC(=O)OC(C)(C)C` [Example 336, tert-butyl N-[2-[[2-methyl-5-[4-[4-(trifluoromethyl)phenyl]piperidine-1-carbonyl]phenyl]carbamoylamino]ethyl]carbamate] is 86.9%; for `Cc1ccc(C(=O)N2CCC(c3ccccc3)CC2)cc1NC(=O)NC(C)C` [Example 391, 1-[2-methyl-5-(4-phenylpiperidine-1-carbonyl)phenyl]-3-propan-2-ylurea] it is 71%. As for `Cc1ccc(C(=O)N2CCC(c3ccc(C#N)cc3)CC2)cc1NC(=O)NCC1CCCO1` (stereo not drawn) [Example 151, 1-[5-[4-(4-cyanophenyl)piperidine-1-carbonyl]-2-methyl-phenyl]-3-(oxolan-2-ylmethyl)urea], the inhibition at 100 µM is 92.1%. Under `Cc1ccc(C(=O)N2CCC(c3ccc(C#N)cc3)CC2)cc1NC(=O)N[C@@H](CCS(C)(=O)=O)C(=O)OC(C)(C)C` [Example 180, tert-butyl (2S)-2-[[5-[4-(4-cyanophenyl)piperidine-1-carbonyl]-2-methyl-phenyl]carbamoylamino]-4-methylsulfonyl-butanoate] stands 92%.

As to `CC(=O)N1CC[C@H](NC(=O)Nc2cc(C(=O)N3CCC(c4ccc(C#N)cc4)CC3)ccc2C)C1` [Example 277, 3-[(3S)-1-acetylpyrrolidin-3-yl]-1-[5-[4-(4-cyanophenyl)piperidine-1-carbonyl]-2-methyl-phenyl]urea], the inhibition at 100 µM was 96.8%. For `Cc1ccc(C(=O)N2CCC(c3ccc(C#N)cc3)CC2)cc1NC(=O)NCCNC(=O)OCc1ccccc1` [Example 81, Benzyl N-[2-[[5-[4-(4-cyanophenyl)piperidine-1-carbonyl]-2-methyl-phenyl]carbamoylamino]ethyl]carbamate], the inhibition at 100 µM worked out at 88.2%.

As for `Cc1ccc(C(=O)N2CCC(c3ccc(C#N)cc3)CC2)cc1NC(=O)N[C@@H]1CCN(C(=O)OC(C)(C)C)C1` [Example 209, tert-butyl (3R)-3-[[5-[4-(4-cyanophenyl)piperidine-1-carbonyl]-2-methyl-phenyl]carbamoylamino]pyrrolidine-1-carboxylate], the inhibition at 100 µM was determined as 89.7%. Regarding `Cc1ccc(C(=O)N2CCC(c3ccc(C#N)cc3)CC2)cc1NC(=O)NC(C)C` [Example 3, 3-[5-[4-(4-cyanophenyl)piperidine-1-carbonyl]-2-methyl-phenyl]-1-propan-2-yl-urea], the inhibition at 100 µM turned out to be 95.6%. The figure for `Cc1ccc(NC(=O)NCc2ccccc2)cc1C(=O)N1CCC(c2ccc(C#N)cc2)CC1` [Example 7, 3-benzyl-1-[3-[4-(4-cyanophenyl)piperidine-1-carbonyl]-4-methyl-phenyl]urea] is 79.1%; for `COC(=O)CNC(=O)CNC(=O)Nc1cc(C(=O)N2CCC(c3ccc(C#N)cc3)CC2)ccc1C` [Example 237, Methyl 2-[[2-[[5-[4-(4-cyanophenyl)piperidine-1-carbonyl]-2-methyl-phenyl]carbamoylamino]acetyl]amino]acetate] it is 90.9%. Under `Cc1ccc(C(=O)N2CCC(c3ccc(C#N)cc3)CC2)cc1NC(=O)NCC1CCS(=O)(=O)C1` (stereo not drawn) [Example 80, 1-[5-[4-(4-cyanophenyl)piperidine-1-carbonyl]-2-methyl-phenyl]-3-[(1,1-dioxothiolan-3-yl)methyl]urea] stands 96.1%; under `Cc1ccc(C(=O)N2CCC(c3ccc(C#N)cc3)CC2)cc1NC(=O)NCCCN1CCN(C)CC1` [Example 140, 1-[5-[4-(4-cyanophenyl)piperidine-1-carbonyl]-2-methyl-phenyl]-3-[3-(4-methylpiperazin-1-yl)propyl]urea], 79.2%; under `Cc1ccc(C(=O)N2CCC(c3ccc(F)cc3)CC2)cc1NC(=O)NCCN(C)S(C)(=O)=O` [Example 351, 1-[5-[4-(4-fluorophenyl)piperidine-1-carbonyl]-2-methyl-phenyl]-3-[2-(methyl-methylsulfonyl-amino)ethyl]urea], 88.9%. For `Cc1ccc(C(=O)N2CCC(c3ccc(C#N)cc3)CC2)cc1NC(=O)NC1(CO)CCCC1` [Example 194, 1-[5-[4-(4-cyanophenyl)piperidine-1-carbonyl]-2-methyl-phenyl]-3-[1-(hydroxymethyl)cyclopentyl]urea], the inhibition at 100 µM worked out at 84.3%. The figure for `Cc1ccc(C(=O)N2CCC(c3ccc(C#N)cc3)CC2)cc1NC(=O)NCC(C)O` (stereo not drawn) [Example 183, 1-[5-[4-(4-cyanophenyl)piperidine-1-carbonyl]-2-methyl-phenyl]-3-(2-hydroxypropyl)urea] is 89.6%; for `Cc1ccc(C(=O)N2CCC(O)(c3ccc(C#N)cc3)CC2)cc1NC(=O)NC(C)C` [Example 50, 1-[5-[4-(4-cyanophenyl)-4-hydroxy-piperidine-1-carbonyl]-2-methyl-phenyl]-3-propan-2-yl-urea] it is 81.2%; for `Cc1ccc(C(=O)N2CCC(c3ccc(C#N)cc3)CC2)cc1NC(=O)NC1CCOC(C)(C)C1` (stereo not drawn) [Example 77, 1-[5-[4-(4-cyanophenyl)piperidine-1-carbonyl]-2-methyl-phenyl]-3-(2,2-dimethyloxan-4-yl)urea] it is 89.6%. Under `Cc1ccc(C(=O)N2CCC(c3ccc(C#N)cc3)CC2)cc1NC(=O)NCCCO` [Example 191, 1-[5-[4-(4-cyanophenyl)piperidine-1-carbonyl]-2-methyl-phenyl]-3-(3-hydroxypropyl)urea] stands 92.2%. As for `N#Cc1ccc(C2CCN(C(=O)c3ccc(F)c(NC(=O)NCc4ccccc4)c3)CC2)cc1` [Example 8, 3-benzyl-1-[5-[4-(4-cyanophenyl)piperidine-1-carbonyl]-2-fluoro-phenyl]urea], the inhibition at 100 µM was determined as 82.6%.

As to `Cc1ccc(C(=O)N2CCC(c3ccc(C#N)cc3)CC2)cc1NC(=O)NC(C)c1ccc(S(C)(=O)=O)cc1` (stereo not drawn) [Example 98, 1-[5-[4-(4-cyanophenyl)piperidine-1-carbonyl]-2-methyl-phenyl]-3-[1-(4-methylsulfonylphenyl)ethyl]urea], the inhibition at 100 µM came out at 91.9%. With `Cc1ccc(C(=O)N2CCC(c3ccc(C#N)cc3)CC2)cc1NC(=O)NCCC(=O)Nc1cnoc1C` [Example 241, 3-[[5-[4-(4-cyanophenyl)piperidine-1-carbonyl]-2-methyl-phenyl]carbamoylamino]-N-(5-methyl-1,2-oxazol-4-yl)propanamide], the inhibition at 100 µM came to 92.4%. Under `C#CCNC(=O)Nc1ccc(C)c(C(=O)N2CCC(c3ccc(C#N)cc3)CC2)c1` [Example 418, 1-[3-[4-(4-cyanophenyl)piperidine-1-carbonyl]-4-methylphenyl]-3-prop-2-ynylurea] stands 67.3%; under `CNCCNC(=O)Nc1cc(C(=O)N2CCC(c3ccc(F)cc3)CC2)ccc1C` [Example 400, 1-[5-[4-(4-fluorophenyl)piperidine-1-carbonyl]-2-methylphenyl]-3-(2-methylaminoethyl)urea], 66.7%; under `Cc1ccc(C(=O)N2CCC(c3ccc(C#N)cc3)CC2)cc1NC(=O)N[C@@H]1CCOC1` [Example 199, 1-[5-[4-(4-cyanophenyl)piperidine-1-carbonyl]-2-methyl-phenyl]-3-[(3R)-oxolan-3-yl]urea], 96.3%. `CCOC(=O)C(C)NC(=O)Nc1cc(C(=O)N2CCC(c3ccc(C#N)cc3)CC2)ccc1C` (stereo not drawn) [Example 385, Ethyl 2-[[5-[4-(4-cyanophenyl)piperidine-1-carbonyl]-2-methylphenyl]carbamoylamino]-propanoate]: the inhibition at 100 µM is 60.8%. Consider `Cc1ccc(C(=O)N2CCC(c3ccc(C#N)cc3)CC2)cc1NC(=O)NCCC(=O)N1CCOCC1` [Example 127, 1-[5-[4-(4-cyanophenyl)piperidine-1-carbonyl]-2-methyl-phenyl]-3-(3-morpholin-4-yl-3-oxo-propyl)urea], for which the inhibition at 100 µM was determined as 93%.
